Results as given in patent US9738720B2, “Monoclonal antibodies against HER2 epitope and methods of use thereof” (Mersana Therapeutics, Inc., priority 2014, dated 2017).

Experiments:
SKBR3 cells [1] = test: Internalization rate with anti-HER2 antibody combination; type: cell-based
Method: For the assay, 40,000 SKBR3 cells were plated in DMEM media containing 10% FBS, in each well of three 96 well plates (black colored plates with clear bottomed wells) and allowed to attach overnight at 37° in 5% CO2. The next day the cells were treated with antibodies as follows. […] The unbound antibody was removed by washing the cells two times with ice cold media. For detection, 5 μg/ml of an Alexa 647 labelled anti-human IgG Fab fragment was added to each well in ice cold media and incubated on ice for 1 hr. The unbound secondary antibody was removed by washing each well 2 times with ice cold media. […] Each treatment was carried out in triplicate. One set of wells were treated with the Alexa 647 labelled anti-human IgG monovalent Fab fragment alone, and the fluorescence measured in these wells was used to subtract background fluorescence.
One plate was left on ice to determine the time 0 values for each treatment, and the other plates were incubated at 37° C. After 1.5 hours, one plate from 37° C., and the time 0 plate, were washed 2 times with ice cold PBS and scanned using the 680 nm channel of a Licor Odyssey scanner. The fluorescence measured in each well is used as the total fluorescence for each treatment. The cells were then acid washed 2 times with 100 mM glycine, 50 mM KCl, and 20 mM […], pH2.2, then washed two times with ice cold PBS to remove the surface bound antibodies. The plates were scanned again to determine the amount of internalized fluorescence in each well. The 24 hour plates were analyzed the same way the next day.

[2] = target: T1, HER2 protein in SKBR3 cells (Homo sapiens, UniProt P04626); test: HER2 degradation, western analysis; type: cell-based; conditions: 4 hours; for HER2 remaining: 10 μg/ml each, combined with trastuzumab and pertuzumab; for full length HER2, percentage of untreated cells: 10 μg/ml, test antibody alone or in combination with trastuzumab
T1 construct: endogenous in cells; host or cells: SKBR3
Method: The effect of anti-HER2 antibodies on HER2 degradation in SKBR3 cells was determined by western analysis after antibody treatment. 300,000 SKBR3 cells were plated in DMEM media with 10% FBS in each well of 6 well culture dishes and grown overnight at 37° in 5% CO2 atmosphere. The media was removed and replaced with fresh media containing 10 μg/ml of each antibody and incubated for 4 hours. The cells were washed once with ice cold PBS and lysed by addition of 200 μl of buffer containing 50 mM Tris HCl, pH 7.4, 150 mM NaCl, 1% Triton X-100, cOmplete Protease Inhibitor cocktail tablets (Roche, Indianapolis, Ind.) and PhosSTOP phosphatase Inhibitor cocktail tablets (Roche, Indianapolis, Ind.). Lysates were centrifuged at 15,000 rpm for 15 minutes at 4° to remove insoluble debris. […] The separated proteins were transferred to a nitrocellulose membrane on a semi-dry electrophoretic transfer system (Bio-Rad, Transblot system) for 30 minutes at 10 volts in transfer buffer (Life Technologies, Cat.# NP0006) containing 10% methanol. […] After the incubation the membrane was washed 3 times with 10 ml TTBS and then incubated for 1 hour with secondary antibodies: a goat anti-rabbit IgG conjugated to IRdye® 800CW (Li-Cor, Cat.#926-32211) and a goat anti-mouse IgG conjugated to IRdye® 680RD (Li-Cor, Cat.#926-68070) both diluted 1:10,000 in blocking buffer. The membrane was again washed 3 times with 10 ml TTBS and scanned on a Li-Cor Odyssey scanner. The bands corresponding to full length HER2 protein and to actin were quantified using the scanner software. Each HER2 band was normalized to the actin band and expressed as a percentage of HER2 protein from cells that were not treated with any anti-HER2 antibodies.

SKOV3 cells = test: SKOV3 mouse tumor xenograft model; type: in vivo; conditions: FIG. 16
TOV-21G cells = test: TOV-21G mouse tumor xenograft model; type: in vivo; conditions: FIG. 14; Example 16E 5 mg/kg or 2 mg/kg; Kadcyla 10 mg/kg; IV single dose
From the text: (§1) Tumor growth inhibition (% TGI) was defined as the percent difference in median tumor volumes (MTVs) between treated and control groups.
In a PR response, the tumor volume was 50% or less of its Day 1 volume for three consecutive measurements during the course of the study, and equal to or greater than 13.5 mm^3 for one or more of these three measurements. In a CR response, the tumor volume was less than 13.5 mm3 for three consecutive measurements during the course of the study. An animal with a CR response at the termination of a study was additionally classified as a tumor-free survivor (TFS). Animals were monitored for regression responses.
Female NCr nu/nu were inoculated subcutaneously with TOV-21G cells (n=10 for each group). Test compounds or vehicle were dosed IV as a single dose on day 1 or as indicated. Tumor size was measured at the times indicated in FIGS. 8 to 18 using digital calipers. Tumor volume was calculated and was used to determine the delay in tumor growth. Mice were sacrificed when tumors reached a size of 800 to 1500 mm^3. Tumor volumes are reported as the mean±SEM for each group.

H522 cells = test: H522 mouse tumor xenograft model; type: in vivo; conditions: FIG. 15; Example 16E 5 mg/kg; Example 17B 5 mg/kg; Kadcyla 10 mg/kg; IV single dose
SNU-5 cells = test: SNU5 mouse tumor xenograft model; type: in vivo; conditions: FIG. 13
Calu-3 cells = test: Calu-3 mouse tumor xenograft model; type: in vivo; conditions: FIG. 17, 5 mg/kg IV single dose at day 1
NCI-N87 cells = test: NCI-N87 mouse tumor xenograft model; type: in vivo; conditions: FIG. 12; Example 16F […] single dose day 1; trastuzumab 15 mg/kg + pertuzumab 15 mg/kg weekly for 3 weeks
MAXF_1162 HER2 3+ = MAXF_1162 HER2 3+ patient derived xenograft model; type: in vivo; conditions: FIG. 19, n=10
Method: as §1
(§2) Treatment efficacy was determined from the incidence and magnitude of regression responses of the tumor size observed during the study. […] In a PR response, the tumor volume was 50% or less of its Day 1 volume for three consecutive measurements during the course of the study, and equal to or greater than 13.5 mm^3 for one or more of these three measurements. In a CR response, the tumor volume was less than 13.5 mm3 for three consecutive measurements during the course of the study. An animal with a CR response at the termination of a study was additionally classified as a tumor-free survivor (TFS). Animals were monitored for regression responses.

BT474 tumor fragments = test: BT474 mouse tumor xenograft model; type: in vivo; conditions: FIG. 20; 5 mg/kg or 2 mg/kg IV single dose at day 1
BRE-0333 HER2 1+ = BRE-0333 HER2 1+ patient derived xenograft model; type: in vivo; conditions: FIG. 18; 3 mg/kg IV single dose; n=8
Method: as §1, §2

[3] = Pharmacokinetics and tolerability in non-human primates; conditions: therapeutic doses
[4] = system: low HER2-expressing breast and gastric cancer models; test: Low HER2-expressing breast and gastric cancer models; type: in vivo; conditions: conjugate single doses of 1 mg/kg or […]; Kadcyla at doses of 10 mg/kg and above
[5] = in vivo
HER2-driven tumor models = test: HER2-driven tumor models, combination with trastuzumab and pertuzumab; type: in vivo
SKBR3 cells [6] = test: HER2 internalization in SKBR3 cells by fluorescence microscopy; type: cell-based; conditions: 90 minutes, in combination with trastuzumab-Alexa-647 and pertuzumab
Method: The effect of a combination of anti-HER2 antibodies on the HER2 internalization in SKBR3 cells was investigated by fluorescence microscopy. […] SKBR3 cells were seeded in 4 chamber microscope slides and allowed to attach by overnight growth in DMEM media (ATCC, Manassas, Va., Cat.#30-2002) with 10% fetal bovine serum (FBS) (Gibco®, Life Technologies, Grand Island, N.Y., Cat.#16140-071) at 37° in 5% CO2. […] The location of trastuzumab was visualized using fluorescence microscope.

[7] = system: phosphorylated AKT in BT474 cells; test: Ligand-independent HER2 signaling in BT474 cells, phospho-AKT western; type: cell-based; conditions: 10 μg/ml antibody, 4 hours, listed as HT19B
Method: The effect of anti-HER2 antibodies on HER2 signaling in BT474 cells (ATCC, HTB-20) was determined by measuring changes in the amount of phosphorylated AKT after a 4 hour antibody treatment. BT474 cells (300,000 cells) were plated in DMEM media with 10% FBS in each well of 6 well culture dishes and grown overnight at 37° in 5% CO2 atmosphere. The media was removed and replaced with fresh media containing 10 μg/ml of test antibody and incubated for 4 hours. The cells were washed once with ice cold PBS and lysed by addition of 200 μl of buffer containing 50 mM Tris HCl, pH 7.4, 150 mM NaCl, 1% Triton X-100, cOmplete Protease Inhibitor cocktail tablets (Roche, Indianapolis, Ind.) and PhosSTOP phosphatase Inhibitor cocktail tablets (Roche, Indianapolis, Ind.). Lysates were centrifuged at 15,000 rpm for 15 minutes at 4° to remove insoluble debris. The levels of phosphorylated AKT were determined by western analysis. […] The bands corresponding to AKT, phospho-AKT, and to actin were quantified using the scanner software. Each phospho-AKT band was normalized to the total AKT band and expressed as a percentage of phospho-AKT protein from cells that were not treated with any anti-HER2 antibodies.

[8] = with Trastuzumab and Pertuzumab, 0 hr
[9] = with Trastuzumab and Pertuzumab, 24 hrs
[10] = with Trastuzumab and Pertuzumab, […]

Substance | Percent internalized (SKBR3 cells [1]; antibody alone, 0 hr) [%] | Percent internalized (SKBR3 cells [1]; antibody alone, 24 hrs) [%] | Percent internalized (SKBR3 cells [1]; antibody alone, […]) [%] | Percent internalized (SKBR3 cells [1]; [8]) [%] | Percent internalized (SKBR3 cells [1]; [9]) [%] | Percent internalized (SKBR3 cells [1]; with Trastuzumab, 0 hr) [%] | Percent internalized (SKBR3 cells [1]; with Trastuzumab, 24 hrs) [%] | Percent internalized (SKBR3 cells [1]; with Trastuzumab, […]) [%] | HER2 remaining [2] [%] | Percent internalized (SKBR3 cells [1]; [10]) [%] | further results
XMT 1517: fully human anti-HER2 IgG1 monoclonal antibody, heavy chain SEQ ID NO: 1, light chain SEQ ID NO: 2 | 4 | 83 | 11 | 4 | 107 | 3 | 106 | 17 | 40 |  | 
XMT 1518: affinity matured fully human anti-HER2 IgG1 antibody, heavy chain SEQ ID NO: 3, light chain SEQ ID NO: 4 |  | 88 | 16 | 2 |  | 2 | 106 | 41 | 20 | 90 | full length HER2, percentage of untreated cells [2]: 78%
XMT 1519-(EG2-MI-(10 kDa PHF-BA-(AF-HPA-Ala))) [Example 16E] |  |  |  |  |  |  |  |  |  |  | complete responses (number of animals) (SKOV3 cells; 5 mg/kg IV single dose, n=10): 10; regressions (SKOV3 cells; 5 mg/kg IV single dose, n=10): 100%; tumor response (TOV-21G cells): tumor retardation; tumor response (H522 cells): tumor retardation; tumor free survivors (SNU-5 cells; 2 mg/kg IV single dose): 100%; tumor free survivors (SNU-5 cells; 5 mg/kg IV single dose): 100%
XMT 1519-(EG2-MI-(10 kDa PHF-BA-(AF-HPA-Ala))) [Example 16F] |  |  |  |  |  |  |  |  |  |  | remained tumor free (number of animals) (Calu-3 cells; Day 60): six; complete responses (number of animals) (Calu-3 cells; n=10): eight; partial responses (number of animals) (Calu-3 cells; n=10): two; regression responses (Calu-3 cells; n=10): 100%; partial response out of ten (NCI-N87 cells): one
XMT 1519-(EG2-MI-(10 kDa PHF-BA-(AF-HPA-Ala))) [Example 16H] |  |  |  |  |  |  |  |  |  |  | regression responses and tumor free survivors (MAXF_1162 HER2 3+; 1 mg/kg IV single dose at day 1): 100%; regression responses and tumor free survivors (MAXF_1162 HER2 3+; 3 mg/kg IV single dose at day 1): 100%; tumor response (BT474 tumor fragments): complete tumor regressions; tumor response (BRE-0333 HER2 1+): tumor retardation
XMT 1519-(EG2-MI-(PHF-BA-(AF-HPA-Ala))) |  |  |  |  |  |  |  |  |  |  | tolerability [3]: well tolerated; tumor response [4]: complete regression; pharmacokinetic profile [5]: excellent pharmacokinetic profile; efficacy in combination with trastuzumab and pertuzumab (HER2-driven tumor models): synergistic efficacy
XMT 1519: fully human anti-HER2 IgG1 monoclonal antibody, heavy chain SEQ ID NO: 5, light chain SEQ ID NO: 6 | 2 | 83 |  | 2 | 88 | 2 | 107 |  | 42 | 83 | effect on HER2 internalization and localization (SKBR3 cells [6]): promotes the internalization and trafficking of HER2 to the lysosomes
XMT 1520: affinity matured fully human anti-HER2 IgG1 antibody, heavy chain SEQ ID NO: 7, light chain SEQ ID NO: 8 | 2 | 78 | 14 | 3 | 101 | 2 | 100 | 23 | 31 | 89 | AKT phosphorylation, percentage of untreated cells [7]: about 30%; full length HER2, percentage of untreated cells [2]: 68%
rituximab-(EG2-MI-(10 kDa PHF-BA-(AF-HPA-Ala))) [Example 17B, reference compound] |  |  |  |  |  |  |  |  |  |  | tumor response (SKOV3 cells; Kadcyla 10 mg/kg, Example 17B 5 mg/kg, IV single dose): did not attain the threshold for therapeutic activity; tumor response (H522 cells): did not attain the threshold for therapeutic activity
